Measured values published in US11571418B2, “Platinum compounds that inhibit constitutive STAT3 signaling and induce cell cycle arrest and apoptosis of malignant cells” (H. LEE MOFFITT CANCER CENTER AND RESEARCH INSTITUTE, INC., priority 2011, dated 2023).

Key:
E2F1 = target: T1, E2F1 (Homo sapiens, UniProt Q01094); assay: In vitro E2F1 DNA-binding activity assay, EMSA with DHFR promoter probe; conditions: cell lysates pre-incubated with compound before DHFR promoter probe
T1 construct: made in house; host or cells: Sf-9 insect cells infected with baculovirus
Protocol: FIGS. 1A-1E. Inhibition of in vitro Stat3 DNA-binding activity by a platinum complex. Nuclear extracts or cell lysates containing activated Stat1, Stat3 and Stat5, or E2F1 prepared from NIH3T3/hEGFR that are stimulated with EGF or Sf-9 insect cells that are infected with baculovirus expressing Stat1, Stat3, Stat5, or E2F1, respectively, were treated with or without the indicated concentrations of platinum complex, PLATINUM-401 or Cisplatin, for 30 min at room temperature prior to incubation with radiolabeled oligonucleotide probes, and subjected to EMSA analysis. (FIG. 1A) (i) Stat1 and Stat3 binding activities to hSIE probe, (ii) Stat1 and Stat5 binding activities to MGFe probe, and (iii) plot of % oligonucleotide probe-STAT:STAT complexes versus concentration of PLATINUM-401. […] Positions of STAT: STAT-DNA complexes in gel are labeled. In (A) to (C), the control lanes represent DMSO (vehicle)-treatment.
In control studies, the effect of PLATINUM-401 was evaluated on the DNA-binding activity of the E2F1 protein that is unrelated to STATs.

NIH3T3/v-Ras fibroblasts = assay: Soft-agar colony formation assay; assay type: cell-based, mouse; conditions: treated every 2-3 days until large colonies evident
Protocol: (§1) FIG. 4. Abrogation of Stat3-dependent viral Src transformation. Viral Src-transformed fibroblasts (NIH3T3/v-Src) and their Ras-transformed counterparts (NIH3T3/v-Ras) were seeded in soft agar and growing cells were treated every 2-3 days with or without the indicated concentrations of PLATINUM-401 until large colonies were evident. Number of colonies of cells in soft agar were counted and expressed as % of control (non-treated) cells. Values are the mean and S.D. of the three independent assays.
(§2) Soft-agar colony formation assays—Colony formation assays were carried out in six-well dishes as previously described (Turkson et al., 1999). In brief, each well contained 1.5 ml of 1% agarose in DMEM as the bottom layer, and 1.5 ml of 0.5% agarose in DMEM containing 4000 or 6000 NIH3T3/v-Src or NIH3T3/v-Ras fibroblasts, respectively, as the top layer. Treatment with PLATINUM-401 was initiated 1 day after seeding cells by adding 75-100 μl of medium with or without compound, and repeated every three days, until large colonies were evident. Colonies were quantified by staining with 20 μl of 1 mg/ml iodonitrotetrazolium violet, incubating at 37° C. overnight and counting the next day.
(§3) PLATINUM-401 was next evaluated for effects on Stat3-mediated v-Src transformation (Turkson et al., 1998; Bromberg et al., 1998; Turkson et al., 1999).

NIH3T3/v-Src fibroblasts = assay: Soft-agar colony formation assay; assay type: cell-based, mouse; conditions: treated every 2-3 days until large colonies evident
Protocol: as §1, §2, §3

[1] = system: malignant cells harboring constitutively-active Stat3; assay: Constitutive Stat3 activation in treated malignant cells (EMSA of nuclear extracts); assay type: cell-based; conditions: 24 h treatment
Protocol: (§4) FIGS. 5A and 5B. Evaluation for effects of PLATINUM-401 on cellular constitutive Stat3 activation and cell proliferation. Normal or malignant cells were treated with or without PLATINUM-401 and nuclear extracts were prepared for Stat3 DNA-binding activity assay with hSIE probe, or cells were processed for nuclear Ki67 immunohistochemistry. (FIG. 5A) EMSA analysis of Stat3 DNA-binding activity; (FIG. 5B) Graphical representations of quantified nuclear staining of Ki-67 proliferation index. Stat3:Stat3-DNA complexes in gels are labeled. The Ki-67 proliferation indexes were calculated as the percent positive tumor cells relative to the total number of cells. Ki67 values are representative of 3 independent assays.
Nuclear extract preparation and gel shift assays—Nuclear extract preparation from NIH3T3 stimulated by rhIL-6, NIH3T3/hEGFR stimulated by rhEGF, v-Src-transformed fibroblasts (NIH3T3/v-Src) or tumor cell lines and electrophoretic mobility shift assay were carried out as previously described (Turkson et al., 1998; Garcia et al., 1997; Yu et al., 1995). […]
(§5) The inventors further examined the biological effects of PLATINUM-401 and determined whether any changes might correlate with the inhibition of constitutively-active Stat3. […]

[2] = system: malignant cells harboring constitutively-active Stat3; assay: Ki67 proliferation index by immunohistochemistry; assay type: cell-based
Protocol: as §4, with “Ki67 values are representative of 3 independent assays.” left out
(§6) Immunohistochemistry—The indirect peroxidase-antiperoxidase test was performed on cytospins prepared from cell lines (control and treated). […] The presence of Ki-67 nuclear staining was calculated as percent positive tumor cells in relation to the total number of cells.
as §5
(§7) Changes in cell proliferation induced by treatment with PLATINUM-401 were assayed in terms of Ki67 proliferation index by immunohistochemistry. The presence of Ki-67 nuclear staining was calculated as the percent positive tumor cells in relation to the total number of cells.

[3] = system: normal NIH 3T3 fibroblasts; assay: Ki67 proliferation index by immunohistochemistry; assay type: cell-based, mouse; conditions: no persistent Stat3 activity
Protocol: as §4, with “Ki67 values are representative of 3 independent assays.” left out
as §6, §5, §7

T1 sequence (Q01094 whole entry, species assumed): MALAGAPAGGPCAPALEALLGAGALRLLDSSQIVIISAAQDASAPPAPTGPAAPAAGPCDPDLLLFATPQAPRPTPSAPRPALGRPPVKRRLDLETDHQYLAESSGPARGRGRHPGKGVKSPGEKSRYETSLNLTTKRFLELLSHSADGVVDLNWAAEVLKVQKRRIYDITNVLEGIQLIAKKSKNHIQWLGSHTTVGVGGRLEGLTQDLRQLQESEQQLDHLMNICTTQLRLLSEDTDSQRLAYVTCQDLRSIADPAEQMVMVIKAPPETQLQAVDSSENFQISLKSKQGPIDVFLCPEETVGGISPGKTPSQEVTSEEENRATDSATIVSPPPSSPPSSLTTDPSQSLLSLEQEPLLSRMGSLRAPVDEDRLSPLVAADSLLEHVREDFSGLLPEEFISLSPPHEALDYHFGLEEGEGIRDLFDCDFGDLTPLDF

## CC(O)CN1CCN(CC(C)O)CC1 (stereo not drawn) [PLATINUM-401]
E2F1
  effect on E2F1 DNA-binding activity: no significant effect
NIH3T3/v-Ras fibroblasts
  growth in soft agar: only partially inhibits growth
NIH3T3/v-Src fibroblasts
  growth in soft agar: strongly suppresses growth
[1]
  constitutive activation of Stat3: significant inhibition
[2]
  Ki67 nuclear staining: significant decreases
[3]
  proliferation (Ki67 index): lack of effect
